Measured values as given in patent US9624238B2, “4H-thieno[3,2-C]chromene-based inhibitors of Notum Pectinacetylesterase and methods of their use” (Lexicon Pharmaceuticals, Inc., priority 2011, dated 2017).

Legend:
[1] = biological target: T1, human notum pectinacetyltransferase (Homo sapiens, UniProt Q6P988); test: Reporter assay (CellSensor LEF/TCF-bla FreeStyle 293F cells, Wnt3a and notum conditioned media); assay type: cell-based; conditions: class symbols
T1 construct: made in house; unpurified conditioned medium used
T1 sequence (Q6P988 20-496): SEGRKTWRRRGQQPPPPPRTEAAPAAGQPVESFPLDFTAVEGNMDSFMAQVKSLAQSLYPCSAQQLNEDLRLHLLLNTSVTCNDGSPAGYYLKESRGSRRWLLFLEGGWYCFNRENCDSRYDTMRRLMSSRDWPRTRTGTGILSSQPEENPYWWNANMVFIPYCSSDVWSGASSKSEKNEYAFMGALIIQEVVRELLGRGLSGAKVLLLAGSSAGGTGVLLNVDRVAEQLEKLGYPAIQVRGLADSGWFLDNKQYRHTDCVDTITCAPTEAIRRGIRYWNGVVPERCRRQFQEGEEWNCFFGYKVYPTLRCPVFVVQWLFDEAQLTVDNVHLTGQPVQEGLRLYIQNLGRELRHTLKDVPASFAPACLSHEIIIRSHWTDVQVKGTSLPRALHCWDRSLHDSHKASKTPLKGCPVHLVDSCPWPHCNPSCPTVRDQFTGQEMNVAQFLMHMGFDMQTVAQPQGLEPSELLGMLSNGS

[2] = biological target: T1, human notum pectinacetyltransferase; test: Binding assay (OPTS esterase substrate, fluorimetric); assay type: biochemical; conditions: class symbols
Description: Plasmid containing human notum pectinacetyltransferase in pcDNA3.1(+) vector was transfected into HEK (293 cells and clones were selecting by growing in presence of 400 ug/mL of G418. Condition media from these cells was used for the assay.

Structure (SMILES) | EC50 [1] | IC50 [2]
O=C(O)C1CCN(C(=O)c2cc3c(s2)-c2cc(F)cc(F)c2SC3)C1 (centres unmarked) | < 0.05 µM | < 1 µM
O=C1CCN(C(=O)c2cc3c(s2)-c2cc(F)cc(F)c2SC3)C1 | < 0.05 µM | < 0.05 µM
O=C(O)C1CN(C(=O)c2cc3c(s2)-c2ccc(Cl)c(F)c2OC3)CC1c1cccs1 (centres unmarked) | < 0.05 µM | < 1 µM
O=C(O)CNC(=O)c1cc2c(s1)-c1ccccc1CC2 | < 0.05 µM | < 0.1 µM
O=C(O)c1cc2c(s1)-c1ccccc1OCC2 | < 0.05 µM | < 0.05 µM
NC(=O)c1cc2c(s1)-c1ccccc1SCC2 | < 0.05 µM | < 0.05 µM
CC(=O)N1Cc2cc(C(=O)O)sc2-c2ccccc21 | < 0.1 µM | < 2 µM
O=C(O)c1cc2c(s1)-c1ccccc1CCC2 | < 1 µM | < 1 µM
O=C(O)c1cc2c(s1)-c1cc(Cl)cc(Br)c1OC2 | < 0.05 µM | < 1 µM
NC(=O)c1cc2c(s1)-c1cccc(Cl)c1SC2 | < 0.05 µM | < 1 µM
O=C(O)c1cc2c(s1)-c1cccc(Cl)c1SC2 | < 0.05 µM | < 2 µM
Cc1ccc2c(c1Cl)CCc1cc(C(N)=O)sc1-2 | < 0.05 µM | < 0.05 µM
Cc1ccc2c(c1Cl)CCc1cc(C(=O)O)sc1-2 | < 0.05 µM | < 0.1 µM
O=C(O)c1cc2c(s1)-c1cc(F)cc(Cl)c1SC2 | < 0.05 µM | < 0.05 µM
NC(=O)c1cc2c(s1)-c1cc(F)cc(Cl)c1SC2 | < 0.05 µM | < 0.1 µM
O=C(O)c1cc2c(s1)-c1cccc(F)c1CC2 | < 0.05 µM | < 0.05 µM
Cc1ccc2c(c1F)CCc1cc(C(N)=O)sc1-2 | < 0.05 µM | < 0.05 µM
Cc1ccc2c(c1F)CCc1cc(C(=O)O)sc1-2 | < 0.05 µM | < 0.1 µM
Cc1cc(F)c2c(c1)-c1sc(C(N)=O)cc1CC2 | < 0.05 µM | < 0.05 µM
NC(=O)c1cc2c(s1)-c1ccc(Cl)c(Cl)c1OC2 | < 0.05 µM | < 0.1 µM
NC(=O)c1cc2c(s1)-c1ccc(Cl)c(Cl)c1SC2 | < 0.05 µM | < 0.1 µM
O=C(O)c1cc2c(s1)-c1ccc(Cl)c(Cl)c1SC2 | < 0.05 µM | < 0.1 µM
O=C(NCc1ccccn1)c1cc2c(s1)-c1ccc(F)c(F)c1CC2 | < 0.05 µM | < 0.05 µM
NC(=O)c1cc2c(s1)-c1cc(F)c(F)c(F)c1SC2 | < 0.05 µM | < 0.05 µM

Structure (SMILES) | EC50 [1] | IC50 [2]
NC(=O)c1cc2c(s1)-c1cc(Cl)cc(Cl)c1SC2 | < 0.05 µM | < 2 µM
O=C(O)c1cc2c(s1)-c1cc(Cl)cc(Cl)c1SC2 | < 0.05 µM | < 1 µM
NC(=O)c1cc2c(s1)-c1cc(F)cc(F)c1SC2 | < 0.05 µM | < 0.05 µM
Cc1cc(C)c2c(c1)-c1sc(C(=O)O)cc1CC2 | < 0.05 µM | < 0.05 µM
NC(=O)c1cc2c(s1)-c1ccc(Cl)c(F)c1OC2 | < 0.05 µM | < 0.05 µM
O=C(O)c1cc2c(s1)-c1ccc(Cl)c(F)c1OC2 | < 0.05 µM | < 0.1 µM
O=C(O)c1cc2c(s1)-c1ccc(Cl)c(F)c1SC2 | < 0.05 µM | < 0.05 µM
NC(=O)c1cc2c(s1)-c1ccc(Cl)c(F)c1SC2 | < 0.05 µM | < 0.05 µM
O=C(O)c1cc2c(s1)-c1cc(F)c(Cl)cc1S(=O)(=O)C2 | < 0.05 µM | < 2 µM
O=C(O)c1cc2c(s1)-c1cc(F)c(Cl)cc1SC2 | < 0.05 µM | < 0.1 µM
NC(=O)c1cc2c(s1)-c1cc(F)c(Cl)cc1SC2 | < 0.05 µM | < 0.1 µM
COc1ccc2c(c1)OCc1cc(C(=O)O)sc1-2 | < 0.1 µM | < 2 µM
Cc1ccc2c(c1[N+](=O)[O-])CCc1cc(C(=O)O)sc1-2 | < 0.05 µM | < 0.05 µM
NC(=O)c1cc2c(s1)-c1ccc(Cl)c(Cl)c1OCC2 | < 0.05 µM | < 2 µM
O=C(O)c1cc2c(s1)-c1ccc(Cl)c(Cl)c1OCC2 | < 0.05 µM | < 0.05 µM
NC(=O)c1cc2c(s1)-c1cc(Cl)c(Cl)cc1CC2 | < 0.05 µM | < 1 µM
O=C(O)c1cc2c(s1)-c1cc(Cl)c(Cl)cc1CC2 | < 0.05 µM | < 0.1 µM
Cc1cc(F)cc2c1SCc1cc(C(=O)O)sc1-2 | < 0.05 µM | < 1 µM
O=C(O)c1cc2c(s1)-c1cc([N+](=O)[O-])ccc1OC2 | < 0.05 µM | < 1 µM
NC(=O)c1cc2c(s1)-c1cc(Cl)ccc1OCC2 | < 0.1 µM | < 0.1 µM
O=C(O)c1cc2c(s1)-c1cc(Cl)ccc1OCC2 | < 0.1 µM | < 0.1 µM
NC(=O)c1cc2c(s1)-c1cc(F)ccc1OCC2 | < 0.05 µM | < 0.05 µM
O=C(O)c1cc2c(s1)-c1cc(F)ccc1OCC2 | < 0.05 µM | < 0.05 µM
NC(=O)c1cc2c(s1)-c1cc(F)ccc1CCC2 | < 0.05 µM | < 0.05 µM

Structure (SMILES) | EC50 [1] | IC50 [2]
O=C(O)c1cc2c(s1)-c1cc(F)ccc1CCC2 | < 1 µM | < 1 µM
CC(C)(C#N)NC(=O)c1cc2c(s1)-c1ccccc1CC2 | < 0.5 µM | < 1 µM
O=C(NCCO)c1cc2c(s1)-c1ccccc1CCC2 | < 0.1 µM | < 0.1 µM
N#CCNC(=O)c1cc2c(s1)-c1ccccc1CC2 | < 0.05 µM | < 0.05 µM
CNC(=O)c1cc2c(s1)-c1ccccc1CC2 | < 0.05 µM | < 0.1 µM
CN(C)C(=O)c1cc2c(s1)-c1ccccc1CC2 | < 0.05 µM | < 1 µM
O=C(c1cc2c(s1)-c1cc(F)cc(F)c1SC2)N1CCCC1CO (centres unmarked) | < 0.1 µM | < 1 µM
O=C(c1cc2c(s1)-c1cc(F)cc(F)c1SC2)N1CCC(O)C1 (centres unmarked) | < 0.05 µM | < 0.05 µM
COC1CCN(C(=O)c2cc3c(s2)-c2cc(F)cc(F)c2SC3)C1 (centres unmarked) | < 0.05 µM | < 0.1 µM
O=C(c1cc2c(s1)-c1cc(F)cc(F)c1SC2)N1CC[C@H](F)C1 | < 0.05 µM | < 1 µM
O=C(c1cc2c(s1)-c1c(F)ccc(F)c1SC2)N1CC[C@H](F)C1 | < 0.05 µM | < 0.1 µM
O=C(c1cc2c(s1)-c1cc(F)c(Cl)cc1SC2)N1CC[C@H](F)C1 | < 0.05 µM | < 1 µM
CCOC(=O)c1cc2c(s1)-c1ccc(C)c(Cl)c1CC2 | < 0.05 µM | < 1 µM
CCOC(=O)c1cc2c(s1)-c1cc(C)cc(F)c1CC2 | < 0.05 µM | < 1 µM
CCOC(=O)c1cc2c(s1)-c1cc(C)cc(C)c1CC2 | < 0.1 µM | < 2 µM
CCOC(=O)c1cc2c(s1)-c1ccc(Cl)c(F)c1SC2 | < 0.1 µM | < 1 µM
CCOC(=O)c1cc2c(s1)-c1ccc(C)c([N+](=O)[O-])c1CC2 | < 0.05 µM | < 0.1 µM
O=C(O)C1CCN(C(=O)c2cc3c(s2)-c2c(F)ccc(F)c2SC3)C1 (centres unmarked) | < 0.05 µM | < 0.1 µM
COC(=O)C1CN(C(=O)c2cc3c(s2)-c2cc(C)cc(F)c2CC3)CC1c1ccccc1 (centres unmarked) | < 0.05 µM | < 1 µM
COC(=O)C1CCN(C(=O)c2cc3c(s2)-c2cc(F)cc(F)c2SC3)C1 (centres unmarked) | < 0.05 µM | < 1 µM
COC(=O)CNC(=O)c1cc2c(s1)-c1ccccc1CC2 | < 0.05 µM | < 1 µM
COC(=O)CNC(=O)c1cc2c(s1)-c1cc(C)cc(C)c1CC2 | < 0.1 µM | < 2 µM
